Test [1] has as its system A549 cells. Nature of the test: DNA damage by phosphorylated H2AX, flow cytometry. The format is cell-based, human. Particulars: 4 h. The procedure: (§1) DNA damage was measured using EpiQuik 8-OHdG DNA Damage Quantification Direct Kit (colorimetric) (Fischer, Waltham, MA, USA, P600396); The mitochondrial cytochrome C release was evaluated using the “Millipore’s FlowCellect Cytochrome C Kit (Millipore, FCCH100110)”. Lactate dehydrogenase activity release was measured in the culture medium using Cytotoxicity Detection Kit (Roche Diagnostic, Barcelona, Spain, 11 644 793 001). Protein synthesis was determined using Click-iT Plus O-propargyl-puromycin (OPP) Protein Synthesis Assay Kit (Invitrogen™, Waltham, MA, USA). Measurement of GSH/GSSG was determined with GSH/GSSG-Glo Assay (Promega, V6611). Measurements of OCR and ECAR with Seahorse XFp (Agilent Technologies) were determined using the XFp Cell Mito Stress Test Kit (103010-100) and XFp Glycolysis Stress Test Kit (103017-100). ATP measurement was determined with Cell Titer-Glo Luminescent Cell Viability Assay (Promega, Madison, WI, USA, G7570). Determination of DNA damage using phosphorylated H2AX measurement were performed as previously described. Cardiolipin oxidation using the fluorophore Nonyl Acridine Orange (NAO, Thermo Scientific, A1372) was performed as described. Cell viability was determined by Hoechst inclusion and Propidium iodide (PI) exclusion by standard protocols. TEM analysis were performed as described. Cell cycle analysis by flow cytometry and microarrays analysis were performed as described. Arrays data have been deposited in the ArrayExpress database at EMBL-EBI (www.ebi.ac.uk/arrayexpress) under accession number E-MTAB-860 (10 November 2022)
(A flow cytometer gives signals particle by particle.)

Test [2] deals with A549 cells. Nature of the test: Protein synthesis (Click-iT OPP). The format is cell-based, human. Particulars: 16 µM, 6 h. The procedure: (§2) DNA damage was measured using EpiQuik 8-OHdG DNA Damage Quantification Direct Kit (colorimetric) (Fischer, Waltham, MA, USA, P600396); The mitochondrial cytochrome C release was evaluated using the “Millipore’s FlowCellect Cytochrome C Kit (Millipore, FCCH100110)”. Lactate dehydrogenase activity release was measured in the culture medium using Cytotoxicity Detection Kit (Roche Diagnostic, Barcelona, Spain, 11 644 793 001). Protein synthesis was determined using Click-iT Plus O-propargyl-puromycin (OPP) Protein Synthesis Assay Kit (Invitrogen™, Waltham, MA, USA). Measurement of GSH/GSSG was determined with GSH/GSSG-Glo Assay (Promega, V6611). Measurements of OCR and ECAR with Seahorse XFp (Agilent Technologies) were determined using the XFp Cell Mito Stress Test Kit (103010-100) and XFp Glycolysis Stress Test Kit (103017-100). ATP measurement was determined with Cell Titer-Glo Luminescent Cell Viability Assay (Promega, Madison, WI, USA, G7570). Determination of DNA damage using phosphorylated H2AX measurement were performed as previously described. Cardiolipin oxidation using the fluorophore Nonyl Acridine Orange (NAO, Thermo Scientific, A1372) was performed as described. Cell viability was determined by Hoechst inclusion and Propidium iodide (PI) exclusion by standard protocols. TEM analysis were performed as described. […]

In a further test the test system is cytosolic Ca2+. Nature of the test: Cytosolic calcium (Fluo3/AM). The format is cell-based. The settings on record: 16 µM, after 4 h of incubation. The procedure:
Specific assays with 1[C,NH] complex were performed according to manufacturer’s instructions using the following reagents from Molecular Probes (Thermo Fisher Scientific): Measurements of ROS: Dihydroethidium (DHE, D11347) and 2′, 7′-dichlorodihydrofluorescein diacetate (H2DCFDA, D399); detection of caspases 3/7: CellEvent Caspase-3/7 Green Detection Reagent (C10423); Cell viability: Live/Dead Cell Imaging Kit (R37601); Analysis of cytosolic calcium concentration: Fluo3/AM (F23915); Analysis of MMP: Tetramethylrhodamine methyl ester perchlorate (TMRM, T668). RT-qPCR’s assays were performed with the following primers/probes from Thermo Fisher Scientific: DCP1A (Hs00218198-m1), FOSB (Hs00171851-m1), EGR1(Hs0015928-m1), ATF3 (Hs00231069-m1), DDIT3 (Hs00358796-g1), PP1R15A (Hs00169585-m1), CHAC1(Hs00225520-m1), MIR9-1 (Hs04231512-s1), ATP1B2 (Hs00155922-m1), BBC3 (Hs00248075-m1), BCL2L11 (Hs00798019-s1), PMAIP1 (Hs00560402-m1), SKP2 (Hs01021864-m1) and HIST1H1B (Hs00271207-s1). RT-qPCR experiments were performed as described.

The subject of test [3] is A549 cells. The test can be described thus: Viability of A549 proliferant vs quiescent cells. The format is cell-based, human. Particulars: 24 h. As to the method: Cytotoxicity. MTT Assay and IC50 estimation. The cytotoxicity of 1[C,NH-Cl], 2[C,NMe-Cl], 3[N,NH-Cl]Cl, 4[N,NMe-Cl]Cl, 5[CNH2,NH-Cl]Cl, 6[CNH2,S-Cl]Cl, 7[CO,NH-Cl] and 8[CO,S-Cl] in A2780, A2780cis, SW480 and A549 carcinoma cells was evaluated by the MTT colorimetric assay. Cells were seeded in 96-well plates at 5000 cells per well and incubated at 37 °C, 5% CO2. […] Final DMSO concentration was kept below 0.7% in wells. For a negative control, one sequence of cells was left untreated and for vehicle control, cells treated with DMSO were included. For cell viability experiments preincubating with NAC (N-Acetyl-L-Cysteine), the cells were pre-treated with NAC, 10 mM for 2 h before the incubation with complex 1[C,NH-Cl] for 24 h. Then, the medium was removed from the wells, and 100 µL MTT (5 mg/mL) was added. After an incubation time of 4 h, 100 μL of solubilizing detergent solution (SDS, 10% in HCL 0.01 M) was added and kept in the incubator overnight. Cell growth inhibition was detected by measuring the absorbance of each well at 595 nm using a BioTek Cytation5 microplate reader. Each test was repeated in quadruplicate in three independent experiments for each cell line. The percentage of survival cells was calculated using absorbance measurements compared with control and the IC50 estimation using Graph Pad Prism version 6.01.

Test [4] relates to A549 cells. The test can be described thus: Cytochrome c release (FlowCellect kit). The format is cell-based, human. Particulars: 5 h. As to the method:
as §2

The test system of test [5] is A549 cells. Nature of the test: Seahorse XFp Cell Mito Stress Test (OCR). The format is cell-based, human. The settings on record: 16 µM, A549, 1 h. As to the method:
as §1

Test [6] is described as follows: Stopped flow kinetics of DMSO substitution by OH-. The format is physicochemical. As to the method:
The slow kinetic measurements were performed with the previous spectrophotometer while the fast kinetic measurements were performed in a stopped flow Bio-Logic SFM-300 spectrophotometer with an absorbance detection system and dead time below 3 ms. The kinetic curves, obtained averaging out at least five shots, were analysed with the Jandel (AISN software, Mapleton, OR) fitting package.

The text below walks through data of PMC9818021, “Targets, Mechanisms and Cytotoxicity of Half-Sandwich Ir(III) Complexes Are Modulated by Structural Modifications on the Benzazole Ancillary Ligand” (Cancers, 2022).

Broadly, the IC50 is the concentration that inhibits the measured activity by half. High values mean lower potency, low ones higher potency.

On to `Cc1c(C)c(C)[c-](C)c1C.[Cl][Ir]1[c]2ccccc2-c2[nH]c3ccccc3[n+]21` [1[C,NH], [(η^5-Cp*)IrCl(κ^2-N,C-pbim)]], for which, in the test with A549 cells [1] (8 μM), the “Percentage of A549 positive cells to damage on DNA” value (from here on “Percentage of A549 positive cells”) is listed as 2%. Further, the “Percentage of A549 positive cells” value in the test with A549 cells [1] (16 μM) amounted to 30%. For the same molecule, in the test with A549 cells [1] (24 μM), the “Percentage of A549 positive cells” value was found to be 87%. The “Inhibition of total protein synthesis” value in the test on A549 cells [2] is given as “around 60%”. Besides, the “Cytosolic Ca2+” value in the test on cytosolic Ca2+ is “increase in cytosolic Ca^2+”. The midpoint of inhibition in the test on A549 cells [3] (A549 non-proliferating (quiescent) condition), the IC50, lay at 17 µM. For the same molecule, in the test with A549 cells [3] (A549 proliferating condition), the IC50 is 9.5 µM. The Cytochrome c release entry in the test with A549 cells [4] is given as “increased Cyt c release”. Moreover, in the test on A549 cells [5], the “ATP Production, OCR, Mean” value worked out at 7.77 pmol/min; the “Basal Respiration, OCR, Mean” value was determined as 57.35 pmol/min; the “Coupling Efficiency, Mean” value stood at 13.65; the “Maximal Respiration, OCR, Mean” value is 47.24 pmol/min. Also, in the test on A549 cells [5], the “Non-Mitochondrial Oxygen Consumption, OCR, Mean” value is reported as 26.35 pmol/min; the “Proton Leak, OCR, Mean” value is given as 49.58 pmol/min; the “Spare Respiratory Capacity as a %, Mean” value was found to be 80.93%; the “Spare Respiratory Capacity, OCR, Mean” value came to 0.27 pmol/min.
As to `Cc1c(C)c(C)[c-](C)c1C.[Cl][Ir]1[O]c2ccccc2-c2sc3ccccc3[n+]21` [8[CO,S], [(η^5-Cp*)IrCl(κ^2-O,N-hpbtz)]], the k (substitution of DMSO by OH-) is 39 s⁻¹ in test [6] (pH = 10.2) and 112 s⁻¹ in test [6] (pH = 11.5).
